Laboratory results: patent US6184365A, “Anthracycline derivatives having 4-amino-2,4,6-trideoxy-2 fluoro-α-L-talopyranosyl group” (priority 1996, dated 2001)
Converted amounts (≈) assume the structure as drawn. “Also recorded” adds a separate entry of the source. Read-outs that look alike come from different tables or passages of the source.

Legend:
[1] = earlier derivatives; cited from earlier work
[2] = earlier derivatives; comparison with daunomycin or adriamycin; cited from earlier work
[3] = test system: human vaginal melanoma (HMV-1); experiment: Growth inhibition of human vaginal melanoma (HMV-1); assay type: cell-based
Method: (§1) Adriamycin was used as a comparative compound and was tested in the same manner as above.
(§2) The different kinds of human cancer cells tested were six kinds indicated below, including human chronic myelogenous leukemia (K562), human vaginal melanoma (HMV-1), human nasopharyngeal carcinoma (KB), human gastric adenocarcinoma (MKN-1), human lung non-small cell carcinoma (PC-14) and human bladder carcinoma (T24).

[4] = test system: human bladder carcinoma (T24); experiment: Growth inhibition of human bladder carcinoma (T24); assay type: cell-based; settings: for IC50: Homo sapiens
Method: as §1, §2

[5] = test system: adriamycin-resistant P388 cells (P388/ADR); experiment: Growth inhibition of adriamycin-resistant P388 cells (P388/ADR); assay type: cell-based, mouse; settings: for IC50: Mus musculus
Method: as §1

[6] = test system: mouse leukemia P388 cells; experiment: Growth inhibition of mouse leukemia P388 cells; assay type: cell-based
Method: as §1

[7] = cited from earlier work
[8] = test system: human gastric adenocarcinoma (MKN-1); experiment: Growth inhibition of human gastric adenocarcinoma (MKN-1); assay type: cell-based; settings: for IC50: Homo sapiens
Method: as §1, §2

[9] = test system: human lung non-small cell carcinoma (PC-14); experiment: Growth inhibition of human lung non-small cell carcinoma (PC-14); assay type: cell-based; settings: for IC50: Homo sapiens
Method: as §1, §2

[10] = test system: human chronic myelogenous leukemia (K562); experiment: Growth inhibition of human chronic myelogenous leukemia (K562); assay type: cell-based; settings: for IC50: Homo sapiens
Method: as §1, §2

[11] = test system: human nasopharyngeal carcinoma (KB); experiment: Growth inhibition of human nasopharyngeal carcinoma (KB); assay type: cell-based
Method: as §1, §2

[12] = test system: Leukemia L-1210 cells; experiment: Antitumor activity against leukemia in CDF1 mice inoculated with Leukemia L-1210 cells; assay type: in vivo, mouse; settings: for Increase (%) in life-span (T/C, %): i.p., once a day for 9 days, as hydrochloride; for antitumor activity against mouse Leukemia L-1210 cell compared with adriamycin: low dosages
Method: Thus, to evaluate the antitumor effects of the novel compounds of this invention against experimental tumors in animals, CDF1 mice (four mice per group) were intraperitoneally inoculated with cells of Leukemia L-1210 at an amount of 1×10^5 cells/mouse. Since an elapse of 24 hours from the inoculation of the leukemia cells, a test compound of this invention was administered intraperitoneally to the mice under test once a day for consecutive 9 days, with the test compound being given as its hydrochloride in the form of a solution in a physiological saline. […] In the meanwhile, mice of the control group (the untreated group) were administered only with physiological saline after the inoculation of the L-1210 cells. During the observation period, the number of the surviving mice was counted for both the treated group and the control group, and the mean survival days of mice of both the treated group and the control group were calculated. Then, the percentages (%) of the increase in the life-span of the treated mice was estimated, as T/C (%), in terms of the mean survival day (C) of the untreated mice of the control group and the mean survival day (T) of the treated mice of the treated group. For comparison purposes, similar tests were effected using daunomycin (as hydrochloride) and adriamycin (as hydrochloride). The mean survival day of mice of the control group (the untreated group) was 8 to 9 days, and the mean survival day of mice of the comparative groups having received the administration of daunomycin or adriamycin usually varied dependently on the dosage of the compound tested.
Incidentally, in respect of the fractional numbers parenthesized below the numerical values of increase (%) in the life-span, the denominator of the fraction denotes the number of mice tested in one test group but the numerator of the fraction denotes the number of mice which survived for 60 days or longer.

[13] = test system: various human cancer cells; experiment: in vitro tests against various human cancer cells; assay type: cell-based; settings: for antitumor or anticancer activity compared with adriamycin: human cancer cells as well as mouse leukemia P388 and P388/ADR cells; for anticancer activities against various human cancer cells compared with adriamycin: in vitro
Method: as §1, §2

[14] = Solubility in water; assay type: physicochemical
[15] = test system: various human cancer cells; settings: in vitro; cited from earlier work
[16] = test system: mouse Leukemia L-1210 cell; settings: in vivo, cited from earlier work
[17] = HMV-1, 72 hours, read-out: IC50
[18] = MKN-1, 72 hours, read-out: IC50
[19] = PC-14, 72 hours, read-out: IC50

## COc1cccc2c1C(=O)c1c(O)c3c(c(O)c1C2=O)C[C@@](O)(C(=O)CO)C[C@@H]3O[C@@H]1O[C@@H](C)[C@@H](O)[C@@H](O)[C@H]1F [7-O-(2,6-Dideoxy-2-fluoro-α-L-talopyranosyl)adriamycinone]
[1]
  solubility in water: barely soluble in water
[2]
  antitumor activity: remarkable antitumor activity

## COc1cccc2c1C(=O)c1c(O)c3c(c(O)c1C2=O)C[C@@](O)(C(=O)CO)C[C@@H]3O[C@@H]1O[C@@H](C)[C@@H](O)[C@@H](N)[C@H]1F [7-O-(3-amino-2,3,6-trideoxy-2-fluoro-α-L-talopyranosyl)adriamycinone]
[1]
  solubility in water: soluble in water
[2]
  antitumor activity: antitumor activity a little higher than that of the latter

## COc1cccc2c1C(=O)c1c(O)c3c(c(O)c1C2=O)C[C@@](O)(C(=O)CO)C[C@@H]3O[C@H]1C[C@H](N)[C@H](O)[C@H](C)O1 [Adriamycin, reference compound]
[3]; 72 h
  IC50: 0.14 µg/mL (≈ 0.258 µM)
[4]; 72 h
  IC50: 0.16 µg/mL (≈ 0.294 µM)
[5]; 72 h
  IC50: 2.5 µg/mL (≈ 4.6 µM)
[6]; P388, 72 h
  IC50: 0.032 µg/mL (≈ 0.0589 µM)
[7]; clinical treatment of cancer-bearing patients
  side-effects: serious side-effects such as leukocytopenia, alopecia, myocardiopathy and others
[8]; MKN-1, 72 h
  IC50: 0.25 µg/mL (≈ 0.46 µM)
[9]; PC-14, 72 h
  IC50: 0.62 µg/mL (≈ 1.14 µM)
[10]; K562, 72 h
  IC50: 0.39 µg/mL (≈ 0.718 µM)
[11]; 72 h
  IC50: 0.05 µg/mL (≈ 0.092 µM)
[12]; 0.15 mg/kg/day
  Increase (%) in life-span (T/C, %): 140%
[12]; 0.3 mg/kg/day
  Increase (%) in life-span (T/C, %): 132%
[12]; 0.6 mg/kg/day
  Increase (%) in life-span (T/C, %): 208%
[12]; 1.25 mg/kg/day
  Increase (%) in life-span (T/C, %): 330%
[12]; 2.5 mg/kg/day
  Increase (%) in life-span (T/C, %): 273%
[12]; 5 mg/kg/day
  Increase (%) in life-span (T/C, %): 177%
[12]; 2.5 to 5 mg/kg/day
  development of toxicity in words: accompanied by the development of toxicity
  percentages of increase in the life-span (T/C, %): about 330%

## COc1cccc2c1C(=O)c1c(O)c3c(c(O)c1C2=O)C[C@@](O)(C(C)=O)C[C@@H]3O[C@@H]1O[C@@H](C)[C@@H](N)[C@@H](O)[C@H]1F [Compound (a), 7-O-(4-amino-2,4,6-trideoxy-2-fluoro-α-L-talopyranosyl)daunomycinone]
[3]; [17]
  IC50: 0.071 µg/mL (≈ 0.13 µM)
[4]; T24, 72 hours, read-out: IC50
  IC50: 0.047 µg/mL (≈ 0.0862 µM)
[5]
  anticancer activity, folds higher than that of adriamycin: 29.1 folds
[5]; 72 hours, read-out: IC50
  IC50: 0.086 µg/mL (≈ 0.158 µM)
[6]; P388, 72 hours, read-out: IC50
  IC50: < 0.0098 µg/mL
[8]; [18]
  IC50: 0.12 µg/mL (≈ 0.22 µM)
[9]; [19]
  IC50: 0.17 µg/mL (≈ 0.312 µM)
[10]; K562, 72 hours, read-out: IC50
  IC50: 0.087 µg/mL (≈ 0.159 µM)
[13]
  antitumor or anticancer activity compared with adriamycin: higher antitumor or anticancer activities than those of adriamycin
  anticancer activities against various human cancer cells compared with adriamycin: remarkably improved anticancer activities
[11]; KB, 72 hours, read-out: IC50
  IC50: 0.028 µg/mL (≈ 0.0513 µM)
[12]; 0.15 mg/kg/day
  Increase (%) in life-span (T/C, %): 127%
[12]; 0.3 mg/kg/day
  Increase (%) in life-span (T/C, %): 152%
[12]; 0.6 mg/kg/day
  Increase (%) in life-span (T/C, %): 182%
[12]; 1.25 mg/kg/day
  number of mice which survived for 60 days or longer / number tested: 2/4
  Increase (%) in life-span (T/C, %): > 463%
[12]; 2.5 mg/kg/day
  Increase (%) in life-span (T/C, %): 235%
[12]; 5 mg/kg/day
  Increase (%) in life-span (T/C, %): 175%
[12]; 0.6~1.25 mg/kg
  antitumor activity compared with daunomycin: antitumor activities higher than those of daunomycin
[12]
  antitumor activity against mouse Leukemia L-1210 cell compared with adriamycin: substantially equal to or higher than that of adriamycin
[14]
  solubility: 10 mg/mL (≈ 18300 µM)

## COc1cccc2c1C(=O)c1c(O)c3c(c(O)c1C2=O)C[C@@](O)(C(=O)CO)C[C@@H]3O[C@@H]1O[C@@H](C)[C@@H](N)[C@@H](O)[C@H]1F [Compound (b), 7-O-(4-amino-2,4,6-trideoxy-2-fluoro-α-L-talopyranosyl)adriamycinone]
[3]; [17]
  IC50: 0.056 µg/mL (≈ 0.0997 µM)
[4]; T24, 72 hours, read-out: IC50
  IC50: 0.026 µg/mL (≈ 0.0463 µM)
[4]; T24
  anticancer activity, folds higher than that of adriamycin: 6.2 folds
[5]
  anticancer activity, folds higher than that of adriamycin: 13.9 folds
[5]; 72 hours, read-out: IC50
  IC50: 0.18 µg/mL (≈ 0.321 µM)
[6]; P388, 72 hours, read-out: IC50
  IC50: < 0.0098 µg/mL
[8]; [18]
  IC50: 0.062 µg/mL (≈ 0.11 µM)
[8]; MKN-1
  anticancer activity, folds higher than that of adriamycin: 4 folds
[9]; [19]
  IC50: 0.12 µg/mL (≈ 0.214 µM)
[9]; PC-14
  anticancer activity, folds higher than that of adriamycin: 5.2 folds
[10]; K562, 72 hours, read-out: IC50
  IC50: 0.063 µg/mL (≈ 0.112 µM)
[10]; K562
  anticancer activity, folds higher than that of adriamycin: 6.2 folds
[13]
  antitumor or anticancer activity compared with adriamycin: higher antitumor or anticancer activities than those of adriamycin
  anticancer activities against various human cancer cells compared with adriamycin: remarkably improved anticancer activities
[11]; KB, 72 hours, read-out: IC50
  IC50: 0.023 µg/mL (≈ 0.041 µM)
[12]; 0.15 mg/kg to 0.6 mg/kg
  antitumor activity (T/C, %) compared with daunomycin: remarkably enhanced anticancer or antitumor activities
[12]; 0.15 mg/kg/day
  Increase (%) in life-span (T/C, %): 155%
[12]; 0.3 mg/kg to 0.6 mg/kg
  development of toxicity in words: did not involve the development of toxicity; also recorded: the development of toxicities is not involved
[12]; 0.3 mg/kg/day
  number of mice which survived for 60 days or longer / number tested: 1/4
  Increase (%) in life-span (T/C, %): > 400%
[12]; 0.3 mg/kg~0.6 mg/kg, pooled
  number of the mice surviving for 60 days (fully cured): two in eight
[12]; 0.6 mg/kg/day
  number of mice which survived for 60 days or longer / number tested: 1/4
  Increase (%) in life-span (T/C, %): > 403%
[12]; 1.25 mg/kg/day
  number of mice which survived for 60 days or longer / number tested: 1/4
  Increase (%) in life-span (T/C, %): > 330%
[12]; 2.5 mg/kg/day
  Increase (%) in life-span (T/C, %): 139%
[12]; 5 mg/kg/day
  Increase (%) in life-span (T/C, %): 92%
[12]; 0.3~0.6 mg/kg, adriamycin at 0.3~0.6 mg/kg
  antitumor activity compared with adriamycin: markedly enhanced anticancer or antitumor activities
[12]
  antitumor activity against mouse Leukemia L-1210 cell compared with adriamycin: substantially equal to or higher than that of adriamycin
[14]
  solubility: 15 mg/mL (≈ 26700 µM)

## COc1cccc2c1C(=O)c1c(O)c3c(c(O)c1C2=O)C[C@@](O)(C(C)=O)C[C@@H]3O[C@H]1C[C@H](N)[C@H](O)[C@H](C)O1 [Daunomycin, reference compound]
[7]; human, in vivo
  side-effects: serious side-effects such as leukocytopenia, alopecia, myocardiopathy and others
[12]; 0.15 mg/kg/day
  Increase (%) in life-span (T/C, %): 132%
[12]; 0.3 mg/kg/day
  Increase (%) in life-span (T/C, %): 112%
[12]; 0.6 mg/kg/day
  Increase (%) in life-span (T/C, %): 145%
[12]; 1.25 mg/kg/day
  Increase (%) in life-span (T/C, %): 158%
[12]; 2.5 mg/kg/day
  Increase (%) in life-span (T/C, %): 171%
[12]; 5 mg/kg/day
  Increase (%) in life-span (T/C, %): 138%
[12]; 2.5 to 5 mg/kg/day
  development of toxicity in words: accompanied by the development of toxicity

## COc1cccc2c1C(=O)c1c(O)c3c(c(O)c1C2=O)C[C@@](O)(C(=O)CO)C[C@@H]3O[C@@H]1O[C@@H](C)[C@H](N)[C@@H](O)[C@H]1F [compound of the formula (D-b), 7-O-(4-amino-2,4,6-trideoxy-2-fluoro-α-L-mannopyranosyl)adriamycinone]
[1]
  solubility in water: soluble in water
[15]
  anticancer activity against various human cancer cells compared with adriamycin: substantially as high as those of adriamycin
[16]; low dosages
  antitumor activity against mouse Leukemia L-1210 cell over adriamycin: remarkably improved antitumor activity
[16]
  antitumor activity against experimental tumors in animals: remarkably high antitumor activity
